Our source for the remaining binding values is patent US12479847B2 (DANA-FARBER CANCER INSTITUTE, INC., priority 2019, dated 2025).

Common to all, as to assay: KINOMEscan (ScanMAX) kinase profiling
Holding throughout (format): binding

Assay [1] addresses T1, panel of 468 kinases (Homo sapiens, UniProt O43318).
T1 construct: purchased KINOMEscan (ScanMAX) service
T1 sequence (O43318 1-606): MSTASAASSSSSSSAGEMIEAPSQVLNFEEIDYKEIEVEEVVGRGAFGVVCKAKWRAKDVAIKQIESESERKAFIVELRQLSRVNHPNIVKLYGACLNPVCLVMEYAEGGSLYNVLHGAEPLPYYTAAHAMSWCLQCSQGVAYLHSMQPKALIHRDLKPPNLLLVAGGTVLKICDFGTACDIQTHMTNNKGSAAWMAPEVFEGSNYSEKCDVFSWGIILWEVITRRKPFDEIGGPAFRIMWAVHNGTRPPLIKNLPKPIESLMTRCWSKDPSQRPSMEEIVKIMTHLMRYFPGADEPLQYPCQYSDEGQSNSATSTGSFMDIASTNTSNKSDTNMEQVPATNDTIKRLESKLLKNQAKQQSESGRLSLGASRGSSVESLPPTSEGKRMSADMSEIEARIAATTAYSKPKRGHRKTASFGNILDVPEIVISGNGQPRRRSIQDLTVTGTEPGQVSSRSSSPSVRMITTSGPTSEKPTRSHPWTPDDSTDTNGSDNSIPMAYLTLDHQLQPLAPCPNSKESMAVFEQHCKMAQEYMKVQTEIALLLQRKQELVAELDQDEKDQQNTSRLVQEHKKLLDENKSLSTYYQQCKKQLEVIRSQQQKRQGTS
The note with it: TAK1; 1 μM; read-out: % control.

Assay [2] addresses T2, panel of 468 kinases (Homo sapiens, UniProt O94768).
T2 construct: purchased KINOMEscan (ScanMAX) service
T2 sequence (O94768 1-372): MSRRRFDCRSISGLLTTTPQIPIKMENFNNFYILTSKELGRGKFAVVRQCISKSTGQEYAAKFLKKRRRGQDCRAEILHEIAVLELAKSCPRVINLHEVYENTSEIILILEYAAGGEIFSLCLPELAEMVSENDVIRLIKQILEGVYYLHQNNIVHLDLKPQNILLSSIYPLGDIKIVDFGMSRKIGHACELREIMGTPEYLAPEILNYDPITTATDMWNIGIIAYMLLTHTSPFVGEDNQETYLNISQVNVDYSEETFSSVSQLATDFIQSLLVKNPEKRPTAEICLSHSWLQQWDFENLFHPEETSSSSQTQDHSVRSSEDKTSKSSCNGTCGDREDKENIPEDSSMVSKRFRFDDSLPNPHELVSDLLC
The conditions noted are these: DRAK2; 1 μM; read-out: % control.

In assay [3] the target is T3, panel of 468 kinases (Homo sapiens, UniProt P00519, Q252H).
T3 construct: purchased KINOMEscan (ScanMAX) service
The conditions noted are these: 1 μM, read-out: % control.

The target in assay [4] is T4, panel of 468 kinases (Homo sapiens, UniProt P36888, D835H).
T4 construct: purchased KINOMEscan (ScanMAX) service
T4 sequence (P36888 27-993 D835H): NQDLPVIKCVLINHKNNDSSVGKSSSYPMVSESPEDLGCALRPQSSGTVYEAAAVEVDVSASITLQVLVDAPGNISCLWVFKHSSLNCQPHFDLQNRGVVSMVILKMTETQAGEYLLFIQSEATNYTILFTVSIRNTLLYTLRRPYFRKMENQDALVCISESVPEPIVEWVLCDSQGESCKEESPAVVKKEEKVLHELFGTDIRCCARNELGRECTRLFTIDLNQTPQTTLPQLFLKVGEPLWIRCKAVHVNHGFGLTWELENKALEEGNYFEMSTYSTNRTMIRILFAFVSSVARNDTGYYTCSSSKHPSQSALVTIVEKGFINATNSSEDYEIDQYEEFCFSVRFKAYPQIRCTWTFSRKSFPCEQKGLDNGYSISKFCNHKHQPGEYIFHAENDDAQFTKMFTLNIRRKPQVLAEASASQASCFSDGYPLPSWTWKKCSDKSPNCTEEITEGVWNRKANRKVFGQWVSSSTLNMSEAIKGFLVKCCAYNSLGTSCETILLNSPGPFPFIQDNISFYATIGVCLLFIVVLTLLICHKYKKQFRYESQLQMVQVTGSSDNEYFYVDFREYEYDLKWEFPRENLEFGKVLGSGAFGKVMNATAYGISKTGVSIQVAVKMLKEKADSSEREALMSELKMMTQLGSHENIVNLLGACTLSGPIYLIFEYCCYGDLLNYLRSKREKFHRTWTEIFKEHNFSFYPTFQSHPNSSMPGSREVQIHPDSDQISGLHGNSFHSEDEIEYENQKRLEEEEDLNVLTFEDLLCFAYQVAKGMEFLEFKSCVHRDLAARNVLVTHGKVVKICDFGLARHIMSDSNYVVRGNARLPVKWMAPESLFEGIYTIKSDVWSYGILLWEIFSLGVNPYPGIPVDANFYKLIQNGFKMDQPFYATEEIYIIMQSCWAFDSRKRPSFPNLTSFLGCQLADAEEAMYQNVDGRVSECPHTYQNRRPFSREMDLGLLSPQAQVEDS
The note with it: FLT3(D835H); 1 μM; read-out: % control.

For assay [5], the target named is T5, panel of 468 kinases (Homo sapiens, UniProt Q8IW41).
T5 construct: purchased KINOMEscan (ScanMAX) service
T5 sequence (Q8IW41 1-473): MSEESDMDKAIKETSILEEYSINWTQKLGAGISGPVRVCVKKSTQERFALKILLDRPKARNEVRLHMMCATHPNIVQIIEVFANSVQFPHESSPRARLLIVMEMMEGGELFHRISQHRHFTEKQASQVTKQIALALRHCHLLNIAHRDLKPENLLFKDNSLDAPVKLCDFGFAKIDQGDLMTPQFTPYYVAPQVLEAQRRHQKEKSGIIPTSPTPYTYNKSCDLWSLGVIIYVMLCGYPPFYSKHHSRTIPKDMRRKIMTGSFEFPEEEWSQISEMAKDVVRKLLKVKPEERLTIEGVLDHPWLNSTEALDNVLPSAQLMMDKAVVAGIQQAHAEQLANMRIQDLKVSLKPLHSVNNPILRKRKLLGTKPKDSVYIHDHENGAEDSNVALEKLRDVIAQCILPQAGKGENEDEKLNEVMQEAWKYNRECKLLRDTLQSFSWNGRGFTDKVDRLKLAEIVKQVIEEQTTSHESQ
The note with it: MAPKAPK5; 1 μM; read-out: % control.

Where two headings read alike, the source gives them in different places.

As to `CNc1nc(Nc2ccc(S(=O)(=O)N3CCC(N4CCOCC4)CC3)cc2OC)nc2[nH]cc(Cl)c12` [Compound 12, 5-chloro-N2-(2-methoxy-4-((4-morpholinopiperidin-1-yl)sulfonyl)phenyl)-N4-methyl-7H-pyrrolo[2,3-d]pyrimidine-2,4-diamine], the remaining binding at 1 µM at panel of 468 kinases [1] stood at 100%; on panel of 468 kinases [2], 74%; at panel of 468 kinases [3] (ABL1(Q252H)-nonphosphorylated), 100%; at panel of 468 kinases [3] (ABL1(Q252H)-phosphorylated), 79%; on panel of 468 kinases [4] it was 100%; at panel of 468 kinases [5], 67%.

Take `CNc1nc(Nc2ccc(C(=O)N3CCC(N4CCOCC4)CC3)c3c2OCO3)nc2[nH]cc(Cl)c12` [Compound 75, (7-((5-chloro-4-(methylamino)-7H-pyrrolo[2,3-d]pyrimidin-2-yl)amino)benzo[d][1,3]dioxol-4-yl)(4-morpholinopiperidin-1-yl)methanone]: the remaining binding at 1 µM on panel of 468 kinases [1] was 29%; at panel of 468 kinases [2], 3.9%; on panel of 468 kinases [3] (ABL1(Q252H)-nonphosphorylated) it was 100%; at panel of 468 kinases [3] (ABL1(Q252H)-phosphorylated) it was 57%; on panel of 468 kinases [4] it was 37%; at panel of 468 kinases [5], 43%.

With `CNc1nc(Nc2ccc(P3(=O)CCN(C4CCOCC4)CC3)cc2OC)nc2[nH]cc(Cl)c12` [Compound 77, 4-(4-((5-chloro-4-(methylamino)-7H-pyrrolo[2,3-d]pyrimidin-2-yl)amino)-3-methoxyphenyl)-1-(tetrahydro-2H-pyran-4-yl)-1,4-azaphosphinane 4-oxide], the remaining binding at 1 µM at panel of 468 kinases [1] was 84%; at panel of 468 kinases [2], 39%; on panel of 468 kinases [3] (ABL1(Q252H)-nonphosphorylated), 100%; on panel of 468 kinases [3] (ABL1(Q252H)-phosphorylated), 62%; on panel of 468 kinases [4], 84%; at panel of 468 kinases [5] it was 46%.
